Data: US12409179B2 (GENEROS BIOPHARMA LTD., priority 2019, dated 2025)

Legend:
[1] = system: rat adjuvant-induced arthritis model; experiment: Embodiment 2: oral Nib1 and medium-dose methotrexate in rat adjuvant-induced arthritis model (joint score, paw volume, AUC); assay type: in vivo, Lewis rat; conditions: MTX 0.5 mpk, Nib1 5 mpk, Nib1 5 mpk + MTX 0.5 mpk
[2] = system: adjuvant-induced arthritis in rats; experiment: Embodiment 3: oral Nib1 and methotrexate in adjuvant-induced arthritis in rats (joint score, paw volume, AUC); assay type: in vivo, Lewis rat; conditions: oral, Tofacitinib 5 mpk, MTX 0.05 mpk, Nib1 1 mpk, Nib1 1 mpk + MTX 0.05 mpk

C[C@@H]1CCN(C(=O)CC#N)C[C@@H]1N(C)c1ncnc2[nH]ccc12 [Tofacitinib]
Relative to G2 percentage (%) (AUC of changes in paw volume) ([1]; Embodiment 2, G2 = Vehicle, Tofacitinib 5 mpk): 44.3%
Total area (AUC of changes in paw volume) ([1]; Embodiment 2, Tofacitinib 5 mpk, in mL·day): 16.61
Clinical scoring of arthritis (sum of the scores of the quadrupedal joints), Average value ([1]; day 0, Tofacitinib 5 mpk): 0
paw volume (right hind foot), Average value ([1]; day 0, Tofacitinib 5 mpk): 1.01 mL
Clinical scoring of arthritis (sum of the scores of the quadrupedal joints), Average value ([1]; day 7, Tofacitinib 5 mpk): 0.50
paw volume (right hind foot), Average value ([1]; day 7, Tofacitinib 5 mpk): 1.57 mL
Clinical scoring of arthritis (sum of the scores of the quadrupedal joints), Average value ([1]; day 13, Tofacitinib 5 mpk): 1.38
paw volume (right hind foot), Average value ([1]; day 13, Tofacitinib 5 mpk): 1.80 mL
Clinical scoring of arthritis (sum of the scores of the quadrupedal joints), Average value ([1]; day 15, Tofacitinib 5 mpk): 3.50
paw volume (right hind foot), Average value ([1]; day 15, Tofacitinib 5 mpk): 1.81 mL
Clinical scoring of arthritis (sum of the scores of the quadrupedal joints), Average value ([1]; day 17, Tofacitinib 5 mpk): 4.88
paw volume (right hind foot), Average value ([1]; day 17, Tofacitinib 5 mpk): 1.85 mL
Clinical scoring of arthritis (sum of the scores of the quadrupedal joints), Average value ([1]; day 20, Tofacitinib 5 mpk): 5.13
paw volume (right hind foot), Average value ([1]; day 20, Tofacitinib 5 mpk): 1.90 mL
Clinical scoring of arthritis (sum of the scores of the quadrupedal joints), Average value ([1]; day 22, Tofacitinib 5 mpk): 5.25
paw volume (right hind foot), Average value ([1]; day 22, Tofacitinib 5 mpk): 1.89 mL
Clinical scoring of arthritis (sum of the scores of the quadrupedal joints), Average value ([1]; day 24, Tofacitinib 5 mpk): 4.75
paw volume (right hind foot), Average value ([1]; day 24, Tofacitinib 5 mpk): 1.81 mL
Clinical scoring of arthritis (sum of the scores of the quadrupedal joints), Average value ([1]; day 27, Tofacitinib 5 mpk): 4.50
paw volume (right hind foot), Average value ([1]; day 27, Tofacitinib 5 mpk): 1.76 mL
Clinical scoring of arthritis (sum of the scores of the quadrupedal joints), Average value ([1]; day 29, Tofacitinib 5 mpk): 4.38
paw volume (right hind foot), Average value ([1]; day 29, Tofacitinib 5 mpk): 1.74 mL
Clinical scoring of arthritis (sum of the scores of the quadrupedal joints), Average value ([1]; day 31, Tofacitinib 5 mpk): 4.38
paw volume (right hind foot), Average value ([1]; day 31, Tofacitinib 5 mpk): 1.71 mL
Clinical scoring of arthritis (sum of the scores of the quadrupedal joints), Average value ([1]; day 34, Tofacitinib 5 mpk): 4.25
paw volume (right hind foot), Average value ([1]; day 34, Tofacitinib 5 mpk): 1.01 mL
Relative to G2 percentage (%) (AUC of changes in paw volume) ([2]; Embodiment 3, G2 = Vehicle): 59.2%
Area under the curve AUC (ml*day) of changes in paw volume ([2]; Embodiment 3): 11.27 mL·days
Clinical scoring of arthritis (sum of the scores of the quadrupedal joints), Average value ([2]; day 0): 0.00
volume of the right hind foot, Average value ([2]; day 0): 1.31 mL
Clinical scoring of arthritis (sum of the scores of the quadrupedal joints), Average value ([2]; day 8): 0.33
volume of the right hind foot, Average value ([2]; day 8): 1.40 mL
Clinical scoring of arthritis (sum of the scores of the quadrupedal joints), Average value ([2]; day 11): 2.67
volume of the right hind foot, Average value ([2]; day 11): 1.76 mL
Clinical scoring of arthritis (sum of the scores of the quadrupedal joints), Average value ([2]; day 13): 4.33
Clinical scoring of arthritis (sum of the scores of the quadrupedal joints), Average value ([2]; day 15): 5.67
volume of the right hind foot, Average value ([2]; day 15): 2.27 mL
Clinical scoring of arthritis (sum of the scores of the quadrupedal joints), Average value ([2]; day 18): 6.33
volume of the right hind foot, Average value ([2]; day 18): 2.40 mL
Clinical scoring of arthritis (sum of the scores of the quadrupedal joints), Average value ([2]; day 21): 6.22
volume of the right hind foot, Average value ([2]; day 22): 2.52 mL
Clinical scoring of arthritis (sum of the scores of the quadrupedal joints), Average value ([2]; day 24): 5.33
